Numbered stars: 1 amine (or outer) side, 2 acyl side, 3 side chain; on linkers, the order of the positions; unused ones are H or OH. Square brackets hold non-standard residues; d marks the D form. Peptide text beside a SMILES is read from it. * marks the point of attachment. ξ: configuration not given here. X1 = CC[C@H](C)[C@H](NC(=O)[C@H](CC(C)C)NC[C@H](CC(C)C)N*)C(=O)N[C@@H](Cc1c[nH]cn1)C(=O)O; LeuΨ(ξCHOHCH2)Val = CC(C)C[C@H](N[*:1])C(O)C[C@H](C(=O)[*:2])C(C)C; Sta(3ξ) = CC(C)C[C@H](N[*:1])C(O)CC(=O)[*:2]; Isovaleryl = CC(C)CC(=O)*; Boc = CC(C)(C)OC(=O)*
Assays:
Pepsin A = Pepsin A (Sus scrofa, UniProt P00791); assay: Inhibition of porcine pepsin
[1] = Compound was evaluated for the ability to inhibit penicillopepsin.
Renin = target: T1, Renin (Homo sapiens, UniProt P00797); assay: Compound was evaluated for the ability to inhibit human plasma renin.; assay type: cell-free
T1 sequence (P00797 whole entry): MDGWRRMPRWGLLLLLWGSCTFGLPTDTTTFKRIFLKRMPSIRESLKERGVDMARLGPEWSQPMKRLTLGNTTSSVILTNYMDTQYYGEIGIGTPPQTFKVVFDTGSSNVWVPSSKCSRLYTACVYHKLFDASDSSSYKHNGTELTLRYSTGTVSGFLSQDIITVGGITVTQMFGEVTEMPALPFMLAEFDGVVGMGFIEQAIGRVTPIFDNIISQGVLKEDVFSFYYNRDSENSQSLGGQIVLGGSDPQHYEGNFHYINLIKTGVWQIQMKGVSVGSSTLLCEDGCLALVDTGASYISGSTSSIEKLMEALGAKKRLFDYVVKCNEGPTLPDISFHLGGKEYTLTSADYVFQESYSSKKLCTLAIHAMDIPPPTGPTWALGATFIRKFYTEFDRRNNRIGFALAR

Chain of Pepsin A (P00791 whole entry): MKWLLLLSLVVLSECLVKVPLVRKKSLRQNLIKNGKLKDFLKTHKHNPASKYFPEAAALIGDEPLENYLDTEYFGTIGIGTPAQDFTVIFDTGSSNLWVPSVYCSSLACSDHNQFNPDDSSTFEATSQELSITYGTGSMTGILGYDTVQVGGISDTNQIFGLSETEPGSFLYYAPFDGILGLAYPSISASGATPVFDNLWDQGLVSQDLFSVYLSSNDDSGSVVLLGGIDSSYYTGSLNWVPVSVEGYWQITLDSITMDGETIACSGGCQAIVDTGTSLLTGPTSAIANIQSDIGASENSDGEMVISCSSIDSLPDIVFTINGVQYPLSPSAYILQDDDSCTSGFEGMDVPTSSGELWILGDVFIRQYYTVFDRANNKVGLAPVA

Row | Compound | Ki (Pepsin A) [nM] | Ki [1] [nM] | IC50 (Renin) [nM]
1 | CC(C)CCC(=O)NC(=O)[C@@H](C)CC(O)[C@@H](CC(C)C)NC(=O)[C@H](NC(=O)CC(C)C)C(C)C (some centres not stated) | 27 |  | 
2 | CC(C)CCC(=O)NC(=O)CNC(=O)CC(O)[C@@H](CC(C)C)NC(=O)[C@H](NC(=O)CC(C)C)C(C)C (some centres not stated) | 56 |  | 
3 | CC(C)CCC(=O)NC(=O)[C@H](C)NC(=O)CC(=O)[C@H](CC(C)C)NC(=O)[C@@H](NC(=O)[C@@H](NC(=O)CC(C)C)C(C)C)C(C)C | 10 | 85 | 
4 | CC[C@H](C)[C@H](NC(=O)[C@H](CC(C)C)NC[C@H](CC(C)C)NC(=O)[C@H](Cc1c[nH]cn1)NC(=O)[C@H](Cc1ccccc1)NC(=O)[C@@H]1CCCN1C(=O)[C@H](Cc1c[nH]cn1)NC(=O)[C@@H]1CCCN1)C(=O)N[C@@H](Cc1c[nH]cn1)C(=O)O (H-PHPFH-X1) |  |  | 10
5 | CC(C)CNC(=O)[C@@H](C)NC(=O)[C@@H](C)CC(=O)[C@H](CC(C)C)NC(=O)[C@@H](NC(=O)CC(C)C)C(C)C | 110 |  | 
6 | CC[C@H](C)[C@H](NC(=O)CC(O)[C@H](CC(C)C)NC(=O)[C@H](Cc1c[nH]cn1)NC(=O)[C@H](Cc1ccccc1)NC(=O)[C@@H]1CCCN1C(=O)[C@H](Cc1c[nH]cn1)NC(=O)CC(C)C)C(=O)N[C@@H](Cc1ccccc1)C(=O)OC (some centres not stated) (Isovaleryl-HPFH[Sta(3ξ)]IF-OMe) |  |  | 0.6
7 | CC[C@H](C)[C@H](NC(=O)[C@@H](CC(O)[C@H](CC(C)C)NC(=O)[C@H](Cc1cnc[nH]1)NC(=O)[C@H](Cc1ccccc1)NC(=O)[C@@H]1CCCN1C(=O)[C@H](Cc1cnc[nH]1)NC(=O)OC(C)(C)C)C(C)C)C(=O)N[C@@H](Cc1cnc[nH]1)C(=O)O (some centres not stated) (Boc-HPFH[LeuΨ(ξCHOHCH2)Val]IH-OH) |  |  | 0.7
8 | CC(C)CCC(=O)NC(=O)[C@@H](C)NC(=O)CC(=O)[C@H](CC(C)C)NC(=O)[C@@H](NC(=O)CC(C)C)C(C)C | 56 |  | 
9 | CC(C)CCC(=O)NC(=O)[C@H](C)NC(=O)CCC(O)[C@@H](CC(C)C)NC(=O)[C@H](NC(=O)CC(C)C)C(C)C (some centres not stated) | 50 |  | 
10 | CC(C)CNC(=O)[C@H](C)NC(=O)[C@@H](C)CC(O)[C@@H](CC(C)C)NC(=O)[C@H](NC(=O)CC(C)C)C(C)C (stereo in doubt; 16b(4R)) | 700 |  | 
11 | CC(C)CCC(=O)NC(=O)[C@H](C)NC(=O)CC(O)[C@@H](Cc1ccccc1)NC(=O)[C@H](NC(=O)CC(C)C)C(C)C (some centres not stated) | 0.9 |  | 
12 | CC[C@H](C)[C@H](NC(=O)[C@H](CC(C)C)NC[C@H](CC(C)C)NC(=O)C(Cc1c[nH]cn1)NC(=O)[C@H](Cc1ccccc1)NC(=O)[C@@H]1CCCN1C(=O)C(N)Cc1c[nH]cn1)C(=O)NC(Cc1c[nH]cn1)C(=O)O (stereo in doubt) |  |  | 1000
13 | CC(C)CC(=O)N[C@H](C(=O)N[C@H](C(=O)N[C@@H](CC(C)C)[C@@H](O)CC(=O)N[C@@H](C)C(=O)N[C@@H](CC(C)C)[C@@H](O)CC(=O)O)C(C)C)C(C)C [PEPSTATIN] | 0.056 | 0.15 | 
14 | CC[C@H](C)[C@H](NC(=O)CC(O)[C@H](CC(C)C)NC(=O)[C@H](Cc1c[nH]cn1)NC(=O)[C@H](Cc1ccccc1)NC(=O)[C@@H]1CCCN1C(=O)[C@H](Cc1c[nH]cn1)NC(=O)CC(C)C)C(=O)N[C@@H](Cc1ccccc1)C(N)=O (some centres not stated) (Isovaleryl-HPFH[Sta(3ξ)]IF-NH2) |  |  | 1.9
15 | CC(C)CCC(=O)NC(=O)C(C)NC(=O)CC(O)[C@H](CC(C)C)NC(=O)[C@@H](NC(=O)[C@@H](NC(=O)CC(C)C)C(C)C)C(C)C (some centres not stated) | 2000 |  | 
16 | CC(C)CC(=O)N[C@H](C(=O)N[C@H](C(=O)N[C@H](CCC(=O)NC(C)C(=O)N[C@H](CCC(=O)O)CC(C)C)CC(C)C)C(C)C)C(C)C (some centres not stated) | 210 |  | 
17 | CC(C)CNC(=O)[C@H](C)NC(=O)[C@@H](C)CC(O)[C@@H](CC(C)C)NC(=O)[C@H](NC(=O)CC(C)C)C(C)C (stereo in doubt; 16a(4S)) | 3 |  | 
18 | CCOC(=O)CC(O)[C@H](CC(C)C)NC(=O)[C@@H](NC(=O)[C@@H](NC(=O)CC(C)C)C(C)C)C(C)C (some centres not stated) | 10 | 47 | 
19 | CC[C@H](C)[C@H](NC(=O)[C@H](Cc1ccccc1)NC(=O)[C@H](Cc1ccccc1)NC(=O)[C@H](Cc1c[nH]cn1)NC(=O)[C@H](Cc1ccccc1)NC(=O)[C@@H]1CCCN1C(=O)[C@H](Cc1c[nH]cn1)NC(=O)[C@@H]1CCCN1)C(=O)N[C@@H](Cc1c[nH]cn1)C(=O)O |  |  | 7000
20 | CC(C)CNC(=O)CNC(=O)[C@@H](C)CC(O)[C@@H](CC(C)C)NC(=O)[C@H](NC(=O)CC(C)C)C(C)C (some centres not stated) | 53 |  | 
21 | CC(C)CCC(=O)NC(=O)[C@@H](C)NC(=O)CC(O)[C@H](CC(C)C)NC(=O)[C@@H](NC(=O)CC(C)C)C(C)C (some centres not stated) | 3 | 7600 | 
22 | CC(C)CCC(=O)NC(=O)[C@H](C)NC(=O)CC(O)[C@@H](CC(C)C)N(C)C(=O)[C@H](NC(=O)[C@@H](NC(=O)CC(C)C)C(C)C)C(C)C (stereo in doubt; 13a(3s)) | 1200 | > 5000 | 

From ChEMBL document CHEMBL1122949, “Pepstatin-derived inhibitors of aspartic proteinases. A close look at an apparent transition-state analogue inhibitor” (J Med Chem, 1985)
